Results on five molecules are retold here after US20240268388A1, “AGRICULTURAL AND HORTICULTURAL FUNGICIDAL COMPOSITION” (NIPPON SODA CO., LTD., priority 2021, published 2024).

The structures appear in SMILES notation. Where two headings read alike, the source gives them in different places.

The test system of test [1] is cucumber anthracnose pathogen (Colletotrichum lagenarium). Kind of test: Fungicidal test for cucumber anthracnose (microplate, turbidity at 405 nm). The conditions noted are these: for inhibition at 0.025 ppm / inhibition at 0.1 ppm / inhibition at 0.4 ppm: Colletotrichum orbiculare, read-out: growth inhibition rate. It counts as cell-based. As to the method: The compounds were dissolved in dimethyl sulfoxide to prepare a chemical agent solution.
A mixture of the prescribed concentration of the chemical agent solution, cucumber anthracnose pathogen (Colletotrichum lagenarium) conidia, and Vogel medium was prepared on a microplate and incubated at 20° C. in the dark for 7 days.
Each expected value was calculated using Colby's equation:
[formula] • where E represents the expected value of the growth inhibition rate (%), M represents the growth inhibition rate (%) when the component (I) is used alone, and N represents the growth inhibition rate (%) when the component (II) is used alone.

The test system of test [2] is wheat leaf blight pathogen (Septoria tritici). Kind of test: Fungicidal test for wheat leaf blight (microplate, turbidity at 405 nm). It counts as cell-based. The conditions noted are these: for inhibition at 6.3 ppm / inhibition at 12.5 ppm / inhibition at 25 ppm / inhibition at 50 ppm / inhibition at 100 ppm: Zymoseptoria tritici, component (I) alone, read-out: growth inhibition rate; for growth inhibition rate: component (II) alone. As to the method:
Compounds of component (I) and component (II) were dissolved in dimethyl sulfoxide at 10,000 ppm and diluted with water to the prescribed concentration to prepare a chemical agent solution. A mixture of the prescribed concentration of the chemical agent solution, wheat leaf blight pathogen (Septoria tritici) conidia, and malt extract was prepared on a microplate and incubated at 20° C. in the dark for 3 days. The turbidity at a wavelength of 405 nm was measured with a microplate reader, and the growth of wheat leaf blight pathogen was compared with that of no treatment control to determine the growth inhibition rate. The results are shown in Tables 2 to 7, along with the expected values calculated as below.
Each expected value was calculated from the fungicidal efficacy of a single application of the compound of component (I) and the fungicidal efficacy of a single application of compound of component (II) by using Colby's equation (S. R. Colby, Calculating synergistic and antagonistic responses of herbicide combinations, Weeds, 15, 20-22 pp (1967)).
[formula] • where E represents the expected value of the growth inhibition rate (%) for the composition containing component (I) and component (II), M represents the growth inhibition rate (%) when the component (I) is used alone, and N represents the growth inhibition rate (%) when the component (II) is used alone. When the measured growth inhibition rate (%) for the composition containing component (I) and component (II) is greater than the expected value E, the composition containing components (I) and component (II) should exert a synergistic effect.

Test [3] relates to soybean rust pathogen (Phakopsora pachyrhizi). The test is described as follows: Soybean rust control test (leaf discs). It counts as in vivo.
Setting [4] is: component (I) alone, 0.0063 ppm.
Setting [5] is: Table 19, component (II) alone (component (I): None): Ipflufenoquin 0.000026, Iminoctadine trialbesilate 0.0032, Cyflufenamid 10, Cyprodinil 0.00013, Potassium bicarbonate 0.08, Thiophanate-methyl 0.08, Picarbutrazox 0.016, Fludioxonil 0.0032, Florylpicoxamid 0.0032, Metyltetraprole 0.08, Mefentrifluconazole 0.4 ppm.
The mark [6] stands for this setting: Table 20, component (II) alone (component (I): None): Ipflufenoquin 0.00064, Iminoctadine trialbesilate 0.0032, Cyflufenamid 10, Cyprodinil 0.00013, Potassium bicarbonate 0.08, Thiophanate-methyl 0.4, Picarbutrazox 0.016, Fludioxonil 0.0032, Florylpicoxamid 0.0032, Metyltetraprole 0.08, Mefentrifluconazole 0.4 ppm.
[7] abbreviates: Table 21, component (II) alone (component (I): None): Ipflufenoquin 0.00064, Iminoctadine trialbesilate 0.0032, Cyflufenamid 10, Cyprodinil 0.00013, Potassium bicarbonate 0.08, Thiophanate-methyl 0.4, Picarbutrazox 0.00064, Fludioxonil 0.0032, Florylpicoxamid 0.0032, Metyltetraprole 0.08, Mefentrifluconazole 0.4 ppm.
Where [8] appears, read: Table 22, component (II) alone (component (I): None): Ipflufenoquin 0.00064, Iminoctadine trialbesilate 0.0032, Cyflufenamid 10, Cyprodinil 0.00013, Potassium bicarbonate 0.08, Thiophanate-methyl 0.4, Picarbutrazox 0.00064, Fludioxonil 0.0032, Florylpicoxamid 0.0032, Metyltetraprole 0.08, Mefentrifluconazole 0.4 ppm.
The mark [9] stands for this setting: Table 23, component (II) alone (component (I): None): Ipflufenoquin 0.00064, Iminoctadine trialbesilate 0.0032, Cyflufenamid 10, Cyprodinil 0.000026, Potassium bicarbonate 0.08, Thiophanate-methyl 0.4, Picarbutrazox 0.00064, Fludioxonil 0.00064, Florylpicoxamid 0.0032, Metyltetraprole 0.08, Mefentrifluconazole 0.4 ppm.
The mark [10] stands for this setting: Table 24, component (II) alone (component (I): None): Ipflufenoquin 0.00064, Iminoctadine trialbesilate 0.0032, Cyflufenamid 10, Cyprodinil 0.00013, Potassium bicarbonate 0.08, Thiophanate-methyl 0.4, Picarbutrazox 0.00064, Fludioxonil 0.00013, Florylpicoxamid 0.0032, Metyltetraprole 0.08, Mefentrifluconazole 0.4 ppm.

On to `N#CCON=C1CN(C(=O)Cc2ccc(-c3noc(C(F)(F)F)n3)cc2)C1` [Compound 3], for which, in test [1] (Compound 3 alone), the inhibition (in general, the percentage by which the read-out fell short of the control) at 0.025 ppm came to 26%; the inhibition at 0.1 ppm came out at 9%; the inhibition at 0.4 ppm is 84%. For the same molecule, in test [2], the inhibition at 6.3 ppm was 32%, the inhibition at 12.5 ppm came out at 41%, the inhibition at 25 ppm is 42% and the inhibition at 50 ppm worked out at 44%. The inhibition at 100 ppm in test [2] worked out at 49%. Moreover, the control value in test [3] (setting [4]) was 12%. Besides, the control value in test [3] (component (I) alone, 0.025 ppm) came to 22%. Also, the control value in test [3] (component (I) alone, 0.1 ppm) is reported as 35%. Moreover, the control value in test [3] (component (I) alone, 0.4 ppm) worked out at 85%.

`CCON=C1CN(C(=O)C(OC)c2ccc(-c3noc(C(F)(F)F)n3)cc2)C1` (stereo not shown) [Compound 5]: in test [1] (Compound 5 alone), the inhibition at 0.025 ppm was 4%, the inhibition at 0.1 ppm came to 76% and the inhibition at 0.4 ppm was 90%. Further, in test [2], the inhibition at 6.3 ppm was found to be 61%, the inhibition at 12.5 ppm amounted to 68%, the inhibition at 25 ppm is 68% and the inhibition at 50 ppm was 64%. Further, the inhibition at 100 ppm in test [2] is 72%. Besides, the control value in test [3] (setting [4]) is 7%. The control value in test [3] (component (I) alone, 0.025 ppm) was 18%. In test [3] (component (I) alone, 0.1 ppm), the control value came to 46%. Further, the control value in test [3] (component (I) alone, 0.4 ppm) is given as 90%.

As for `CCON=C1CN(C(=O)C(C)c2ccc(-c3noc(C(F)(F)F)n3)cc2)C1` (stereo not shown) [Compound 6], in test [1] (Compound 6 alone), the inhibition at 0.025 ppm was determined as 32%, the inhibition at 0.1 ppm was 67% and the inhibition at 0.4 ppm came out at 86%. Besides, in test [2], the inhibition at 6.3 ppm turned out to be 47%, the inhibition at 12.5 ppm is 58%, the inhibition at 25 ppm came to 63% and the inhibition at 50 ppm was 64%. In addition, the inhibition at 100 ppm in test [2] was 69%. Besides, the control value in test [3] (setting [4]) was found to be 19%. Moreover, in test [3] (component (I) alone, 0.025 ppm), the control value worked out at 49%. The control value in test [3] (component (I) alone, 0.1 ppm) is reported as 76%. Moreover, the control value in test [3] (component (I) alone, 0.4 ppm) is 98%.

As to `COc1ccnc(C(=O)N[C@@H](C)C(=O)O[C@@H](C)C(c2ccc(F)cc2)c2ccc(F)cc2)c1OC(C)=O` [Florylpicoxamid, florylpicoxamid, reference compound], the growth inhibition rate in test [1] (setting [5]), in test [1] (setting [6]), in test [1] (setting [7]), in test [1] (setting [8]), in test [1] (setting [9]) and in test [1] (setting [10]) was 0% in each case. The growth inhibition rate in test [2] (0.001 ppm) was found to be 80%; in test [2] (.0002 ppm (also printed 0002)) it was 70%. For the same molecule, the control value in test [3] (Table 14, component (II) alone (component (I): None): Inpyrfluxam 0.00025, Chlorothalonil 0.006, Thiophanate-methyl 0.0001, Tebuconazole 0.000025, Trifloxystrobin 0.0001, Fluazinam 0.006, Prothioconazole 0.000025, Florylpicoxamid 0.0001, Metominostrobin 0.0004 ppm) is 27%; in test [3] (Table 15, component (II) alone (component (I): None): Azoxystrobin 0.0001, Inpyrfluxam 0.000025, Chlorothalonil 0.0063, Difenoconazole 0.000025, Cyproconazole 0.000025, Tebuconazole 0.000025, Trifloxystrobin 0.0001, Pyraclostrobin 0.0001, Fluazinam 0.0063, Fluxapyroxad 0.000025, Prothioconazole 0.000025, Florylpicoxamid 0.0001, Benzovindiflupyr 0.000025, Mancozeb 0.0063 ppm) it was 0%; in test [3] (Table 16, component (II) alone (component (I): None): Inpyrfluxam 0.000025, Chlorothalonil 0.006, Thiophanate-methyl 0.0001, Tebuconazole 0.000025, Trifloxystrobin 0.0001, Fluazinam 0.006, Prothioconazole 0.000025, Florylpicoxamid 0.0001, Metominostrobin 0.0004 ppm), 27%; in test [3] (Table 17, component (II) alone (component (I): None): Inpyrfluxam 0.000026, Chlorothalonil 0.02, Thiophanate-methyl 0.0004, Tebuconazole 0.0001, Trifloxystrobin 0.0001, Fluazinam 0.006, Prothioconazole 0.000025, Florylpicoxamid 0.0001, Metominostrobin 0.0004 ppm), 27%; in test [3] (Table 18, component (II) alone (component (I): None): Azoxystrobin 0.0001, Inpyrfluxam 0.000025, Chlorothalonil 0.0063, Difenoconazole 0.000025, Cyproconazole 0.000025, Tebuconazole 0.000025, Trifloxystrobin 0.0001, Pyraclostrobin 0.0001, Fluazinam 0.0063, Fluxapyroxad 0.000025, Prothioconazole 0.000025, Florylpicoxamid 0.0001, Benzovindiflupyr 0.000025, Mancozeb 0.0063 ppm), 0%.

For the molecule `Cc1nc2c(F)c(F)ccc2cc1Oc1cccc(F)c1C(C)(C)O` [Ipflufenoquin, ipflufenoquin, reference compound], the growth inhibition rate in test [1] (setting [5]) is 0%; in test [1] (setting [6]), 47%; in test [1] (setting [7]) it was 47%; in test [1] (setting [8]) it was 47%; in test [1] (setting [9]) it was 47%; in test [1] (setting [10]) it was 47%. Moreover, the growth inhibition rate was determined as 6% in test [2] (0.06 ppm), 6% in test [2] (0.25 ppm) and 22% in test [2] (1 ppm).
